According to patent publication US6376497B1, “Antifungal azole derivatives having a fluorinated vinyl group and process for preparing same” (Korea Research Institute of Chemical Technology, priority 1999, dated 2002):
Values after ≈ are worked out from the molar mass of the structure shown.

Tests used:
Experiment in all cases: In vitro antifungal activity, microbroth dilution MIC
Format in all cases: cell-based
[1] = system: Cryptococcus neoformans IFM. 40092; details: 4 to 48 hours; for Minimal inhibitory concentration (MIC): Cry. neoformans IFM. 40092, RPMI-1640, 35° C.
Procedure, shortened: (§1)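 Broth microdilution adapted from NCCLS M27, in RPMI-1640 with 0.165 M MOPS, pH 7.0. Yeast or mould inoculum at 2×10^3 CFU/ml was mixed 1:1 with DMSO-derived compound solutions (200 to 0.10 μg/ml before mixing) and incubated at 35 °C for 4 to 48 h. MIC was the concentration showing no growth.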

[2] = system: Candida pseudotropicalis K. 11658; details: 4 to 48 hours; for Minimal inhibitory concentration (MIC): C. pseudotropicalis K. 11658, RPMI-1640, 35° C.
Procedure, shortened: as §1

[3] = system: Candida albicans A. 10231; details: 4 to 48 hours; for Minimal inhibitory concentration (MIC): C. albicans A. 10231, RPMI-1640, 35° C.
Procedure, shortened: as §1

[4] = system: Torulopsis glabrata B. 16205; details: 4 to 48 hours; for Minimal inhibitory concentration (MIC): T. glabrata B. 16205, RPMI-1640, 35° C.
Procedure, shortened: as §1

[5] = system: Candida krusei K. 11655; details: 4 to 48 hours; for Minimal inhibitory concentration (MIC): C. krusei K. 11655, RPMI-1640, 35° C.
Procedure, shortened: as §1

[6] = system: Aspergillus niger A. 16404; details: 4 to 48 hours; for Minimal inhibitory concentration (MIC): A. niger A. 16404, RPMI-1640, 35° C.
Procedure, shortened: as §1

[7] = system: Candida albicans IFO. 1385; details: 4 to 48 hours; for Minimal inhibitory concentration (MIC): C. albicans IFO. 1385, RPMI-1640, 35° C.
Procedure, shortened: as §1

[8] = system: Aspergillus furnigatus B. 19119; details: 4 to 48 hours; for Minimal inhibitory concentration (MIC): A furnigatus B. 19119, RPMI-1640, 35° C.
Procedure, shortened: as §1

[9] = system: Candida tropicalis A. 13803; details: 4 to 48 hours; for Minimal inhibitory concentration (MIC): C. tropicalis A. 13803, RPMI-1640, 35° C.
Procedure, shortened: as §1

[10] = system: Cryptococcus neoformans B. 42419; details: 4 to 48 hours; for Minimal inhibitory concentration (MIC): Cry. neoformans B. 42419, RPMI-1640, 35° C.
Procedure, shortened: as §1

[11] = system: Trichophyton mentagrophytes B. 32663; details: 4 to 48 hours; for Minimal inhibitory concentration (MIC): T. mentagrophytes B. 32663, RPMI-1640, 35° C.
Procedure, shortened: as §1

[12] = system: Candida albicans C1-2; details: 4 to 48 hours; for Minimal inhibitory concentration (MIC): C. albicans C1-2, RPMI-1640, 35° C.
Procedure, shortened: as §1

[13] = system: Cryptococcus neoformans A. 34144; details: 4 to 48 hours; for Minimal inhibitory concentration (MIC): Cry. neoformans A. 34144, RPMI-1640, 35° C.
Procedure, shortened: as §1

[14] = system: Trichophyton mentagrophytes A. 9129; details: 4 to 48 hours; for Minimal inhibitory concentration (MIC): T. mentagrophytes A. 9129, RPMI-1640, 35° C.
Procedure, shortened: as §1

[15] = system: Candida parapsitosis A. 7330; details: 4 to 48 hours; for Minimal inhibitory concentration (MIC): C. parapsitosis A. 7330, RPMI-1640, 35° C.
Procedure, shortened: as §1

[16] = RPMI-1640, 35° C., no growth observed

Minimal inhibitory concentration (MIC) [1]	Minimal inhibitory concentration (MIC) [2]	Minimal inhibitory concentration (MIC) [3]	Minimal inhibitory concentration (MIC) [4]	Minimal inhibitory concentration (MIC) [5]	Minimal inhibitory concentration (MIC) [6]	Minimal inhibitory concentration (MIC) [7]	Minimal inhibitory concentration (MIC) [8]	Minimal inhibitory concentration (MIC) [9]	Minimal inhibitory concentration (MIC) [10]	Minimal inhibitory concentration (MIC) [11]	Minimal inhibitory concentration (MIC) [12]	Minimal inhibitory concentration (MIC) [13]	Minimal inhibitory concentration (MIC) [14]	Minimal inhibitory concentration (MIC) [15]	Structure (SMILES)	other results
0.20 µg/mL (≈ 0.402 µM)	6.25 µg/mL (≈ 12.6 µM)	12.5 µg/mL (≈ 25.1 µM)	6.25 µg/mL (≈ 12.6 µM)	12.5 µg/mL (≈ 25.1 µM)	12.5 µg/mL (≈ 25.1 µM)	0.78 µg/mL (≈ 1.57 µM)	6.25 µg/mL (≈ 12.6 µM)	12.5 µg/mL (≈ 25.1 µM)	1.56 µg/mL (≈ 3.13 µM)	3.13 µg/mL (≈ 6.29 µM)	12.5 µg/mL (≈ 25.1 µM)	1.56 µg/mL (≈ 3.13 µM)	12.5 µg/mL (≈ 25.1 µM)	50.0 µg/mL (≈ 100 µM)	Cc1cc(C=C(F)OCC2COC(Cn3ccnc3)(c3ccc(Cl)cc3Cl)O2)ccc1Cl (stereo not drawn) [Ex. 17]	–
1.56 µg/mL (≈ 3.27 µM)	6.25 µg/mL (≈ 13.1 µM)	12.5 µg/mL (≈ 26.2 µM)	6.25 µg/mL (≈ 13.1 µM)	6.25 µg/mL (≈ 13.1 µM)	6.25 µg/mL (≈ 13.1 µM)	1.56 µg/mL (≈ 3.27 µM)	6.25 µg/mL (≈ 13.1 µM)	12.5 µg/mL (≈ 26.2 µM)	3.13 µg/mL (≈ 6.56 µM)	1.56 µg/mL (≈ 3.27 µM)	6.25 µg/mL (≈ 13.1 µM)	3.13 µg/mL (≈ 6.56 µM)	3.13 µg/mL (≈ 6.56 µM)	12.5 µg/mL (≈ 26.2 µM)	CCc1ccc(C=C(F)OCC2COC(Cn3ccnc3)(c3ccc(Cl)cc3Cl)O2)cc1 (stereo not drawn) [Ex. 4]	–
0.20 µg/mL	100 µg/mL	12.5 µg/mL	6.25 µg/mL	>100 µg/mL	100 µg/mL	0.78 µg/mL	12.5 µg/mL	100 µg/mL	1.56 µg/mL	3.13 µg/mL	12.5 µg/mL	1.56 µg/mL	6.25 µg/mL	>100 µg/mL	COc1ccc(C(=C(F)OCC2COC(Cn3ccnc3)(c3ccc(F)cc3F)O2)C(F)(F)F)cc1 (mixture of isomers) [Ex. 61]	–
–	–	–	–	–	–	–	–	–	–	–	–	–	–	–	FC(Oc1ccc(OCC2COC(Cn3cncn3)(c3ccc(Cl)cc3Cl)O2)cc1)=C(c1ccccc1)C(F)(F)F (mixture of isomers) [Ex. 119]	Minimal inhibitory concentration(MIC), Cry. neoformans IFM. 40092 [1, 16]: 0.39 µg/mL; Minimal inhibitory concentration(MIC), C. pseudotropicalis K. 11658 [2, 16]: >100 µg/mL; Minimal inhibitory concentration(MIC), C. albicans A. 10231 [3, 16]: 50.0 µg/mL; Minimal inhibitory concentration(MIC), T. glabrata B. 16205 [4, 16]: 50.0 µg/mL; Minimal inhibitory concentration(MIC), C. krusei K. 11655 [5, 16]: >100 µg/mL; Minimal inhibitory concentration(MIC), A. niger A. 16404 [6, 16]: >100 µg/mL; Minimal inhibitory concentration(MIC), C. albicans IFO. 1385 [7, 16]: 1.56 µg/mL; Minimal inhibitory concentration(MIC), A furnigatus B. 19119 [8, 16]: >100 µg/mL; Minimal inhibitory concentration(MIC), C. tropicalis A. 13803 [9, 16]: >100 µg/mL; Minimal inhibitory concentration(MIC), Cry. neoformans B. 42419 [10, 16]: 1.56 µg/mL; Minimal inhibitory concentration(MIC), T. mentagrophytes B. 32663 [11, 16]: 3.13 µg/mL; Minimal inhibitory concentration(MIC), C. albicans C1-2 [12, 16]: 25.0 µg/mL; Minimal inhibitory concentration(MIC), Cry. neoformans A. 34144 [13, 16]: 1.56 µg/mL; Minimal inhibitory concentration(MIC), T. mentagrophytes A. 9129 [14, 16]: 6.25 µg/mL; Minimal inhibitory concentration(MIC), C. parapsitosis A. 7330 [15, 16]: >100 µg/mL
